Key:
[1] = log P determination with LC-MS under acidic conditions, pH 2.7; format: physicochemical; settings: reverse phase HPLC column (C 18)
Experimental: (§1) The determination of the log P values given in the above table and preparation examples is carried out in accordance with EEC directive 79/831 Annex V.A8 by HPLC (High Performance Liquid Chromatography) on a reverse phase column (C 18). Temperature: 43° C. The determination with LC-MS under acidic conditions is carried out at pH 2.7 with 0.1% aqueous formic acid and acetonitrile (contains 01% formic acid) as eluents; linear gradient from 10% acetonitrile to 95% acetonitrile. Calibration was is carried out with unbranched alkan-2-ones (with 3 to 16 carbon atoms) of known log P values (Determination of log P values by the retention times by linear interpolation between two sequential alkanones).

[2] = test system: green peach aphid (Myzus persicae); experiment: Myzus test (spray treatment); format: in vivo; settings: for pest or weed control at 100 g/ha: Myzus persicae, in Brassica oleracea, 120 h, spray treatment, China cabbage slices, after 5 d, read-out: Death rate in % after 5d; for activity in Myzus test (spray treatment): statement in words
Experimental: (§2) [table] For the preparation of a suitable active compound formulation 1 part by weight of the active compound is mixed with the above amounts of solvent and emulsifier and the concentrate is diluted to the desired concentration with water containing emulsifier. China cabbage slices (Brassica pekinensis) that are infected with all stages of the green peach aphid (Myzus persicae) are sprayed with an active compound preparation at the desired concentration. After the desired time the activity in % is determined. Here 100% means that all aphids were killed; 0% means that no aphids were killed.

[3] = test system: larvae of the mustard leaf beetle (Phaedon cochleariae); experiment: Phaedon test (spray treatment); format: in vivo; settings: for activity in Phaedon test (spray treatment): statement in words
Experimental: (§3) [table] For the preparation of a suitable active compound formulation 1 part by weight of the active compound is mixed with the above amounts of solvent and emulsifier and the concentrate is diluted to the desired concentration with water containing emulsifier. China cabbage slices (Brassica pekinensis) are sprayed with an active compound preparation of the desired composition and after drying infected with larvae of the mustard leaf beetle (Phaedon cochleariae). After the desired time the activity in % is determined. Here 100% means that all beetle larvae were killed; 0% means that no beetle larvae were killed.

[4] = test system: caterpillars of the fall army worm (Spodoptera frugiperda); experiment: Spodoptera frugiperda test (spray treatment); format: in vivo; settings: for pest or weed control at 4 g/ha: Spodoptera frugiperda, 168 h, spray treatment, maize leaf sections, after 7 d, read-out: Death rate in % after 7d; for activity in Spodoptera frugiperda test (spray treatment): statement in words
Experimental: as §3, with “Maize leaf sections (Zea mays)” for “China cabbage slices (Brassica pekinensis)”, “concentration” for “composition”, “caterpillars” for “larvae”, “fall army worm (Spodoptera frugiperda).” for “mustard leaf beetle (Phaedon cochleariae).”, “caterpillars” for “beetle larvae”

[5] = log P determination by HPLC on reverse phase column, pH 2.3; format: physicochemical; settings: reverse phase HPLC column (C 18), reverse phase column (C 18), pH 2.3, 43° C.
Experimental: as §1, with “is carried out” for “with LC-MS”, “conditions” for “conditions is carried out”, “2.3” for “2.7”, “phosphoric” for “formic”, “acetonitrile” for “acetonitrile (contains 01% formic acid)”, “of” for “from”

[6] = test system: caterpillars of the diamond back moth (Plutella xylostella); experiment: Plutella test; format: in vivo; settings: for Death rate in % after 7d: cabbage leaves dipped; for activity in Plutella test: statement in words
Experimental: [table] For the preparation of a suitable active compound formulation 1 part by weight of the active compound is mixed with the above amounts of solvent and emulsifier and the concentrate is diluted to the desired concentration with water containing emulsifier. Cabbage leaves (Brassica oleracea) are treated by dipping into the active compound preparation of the desired concentration and infected with caterpillars of the diamond back moth (Plutella xylostella) while the leaves were still wet. After the desired time the death rate is determined as %. Here 100% means that all caterpillars were killed; 0% means no caterpillars were killed.

[7] = test system: cotton aphid (Aphis gossypii); experiment: Aphis gossypii test; format: in vivo; settings: for Death rate in % after 7d: cotton leaves immersed; for activity in Aphis gossypii test: statement in words
Experimental: as §2, with “Cotton leaves (Gossypium hirsutum) heavily infested with the cotton aphid (Aphis gossypii)” for “China cabbage slices (Brassica pekinensis) that”, “treated by immersion in” for “infected with all stages of”, “the” for “the green peach aphid (Myzus persicae) are sprayed with an”, “death rate” for “activity”

[8] = Phaedon cochleariae, 168 h, spray treatment, China cabbage slices, after 7 d, read-out: Death rate in % after 7d

Row | SMILES | chromatographic logP [1] | pest or weed control at 100 g/ha [2] | activity in Myzus test (spray treatment) [2] | pest or weed control at 100 g/ha [3, 8] | activity in Phaedon test (spray treatment) [3] | pest or weed control at 4 g/ha [4] | activity in Spodoptera frugiperda test (spray treatment) [4] | chromatographic logP [5] | Death rate in % after 7d ([6]; 0.8 ppm) | activity in Plutella test [6] | Death rate in % after 7d ([7]; 20 ppm) | activity in Aphis gossypii test [7] | Death rate in % after 7d ([6]; 0.16 ppm) | Death rate in % after 7d ([7]; 100 ppm) | pest or weed control at 4 g/ha ([3]; Phaedon cochleariae, 168 h, 4 g/ha, spray treatment, China cabbage slices, after 7 d, read-out: Death rate in % after 7d)
1 | Cc1sc(CO)cc1[N+](=O)[O-] [(5-methyl-4-nitro-2-thienyl)methanol] | 1.4 |  |  |  |  |  |  |  |  |  |  |  |  |  | 
2 | CSC[C@H](C)NC(=O)c1c(Cl)cccc1C(=O)Nc1ccc(Cn2nc(C(F)(F)F)cc2C(F)(F)F)nc1C [Example 1, N^1-(6-{[3,5-bis(trifluoromethyl)-1H-pyrazol-1-yl]methyl}-2-methylpyridin-3-yl)-3-chloro-N^2-[(1S)-1-methyl-2-(methylthio)ethyl]phthalamide] |  | 100% | good activity | 100% | good activity | 100% | good activity |  |  |  |  |  |  |  | 
3 | Cc1nc(Cn2nc(C(F)(F)F)cc2C(F)(F)F)ccc1NC(=O)c1cccc(Cl)c1C(=O)N[C@@H](C)C[S+](C)[O-] (stereo partly drawn) [Example 2, N^1-(6-{[3,5-bis(trifluoromethyl)-1H-pyrazol-1-yl]methyl}-2-methylpyridin-3-yl)-3-chloro-N^2-[(1S)-1-methyl-2-(methylsulphinyl)ethyl]phthalamide] |  | 100% | good activity | 100% | good activity | 100% | good activity |  |  |  |  |  |  |  | 
4 | CSC[C@H](C)NC(=O)c1c(I)cccc1C(=O)Nc1ccc(Cn2nc(C(F)(F)F)cc2C(F)(F)F)nc1C [Example 6] |  | 100% | good activity | 100% | good activity | 100% | good activity | 3.68 | 100% | good activity | 95% | good activity |  |  | 
5 | Cc1nc(Cn2nc(C(F)(F)F)cc2C(F)(F)F)ccc1NC(=O)c1cccc(I)c1C(=O)N[C@@H](C)C[S+](C)[O-] (stereo partly shown) [Example 7] |  | 90% | good activity | 90% | good activity | 100% | good activity | 2.42 |  |  |  |  |  |  | 
6 | Cc1nc(Cn2nc(C(F)(F)F)cc2C(F)(F)F)ccc1NC(=O)c1cccc(I)c1C(=O)N[C@@H](C)CS(C)(=O)=O [Example 8] |  | 100% | good activity | 100% | good activity | 100% | good activity | 2.8 |  |  |  |  |  |  | 
7 | Cc1nc(Cn2nc(C(F)(F)F)nc2C(F)(F)F)ccc1NC(=O)c1cccc(I)c1C(=O)N[C@@H](C)C[S+](C)[O-] (stereo partly shown) [Example 13] |  | 100% | good activity | 100% | good activity | 100% | good activity | 2.28 |  | good activity |  |  | 95% |  | 
8 | CSC[C@H](C)NC(=O)c1c(Cl)cccc1C(=O)Nc1ccc(Cn2nc(C(F)(F)F)nc2C(F)(F)F)nc1C [Example 14] |  | 90% | good activity | 90% | good activity | 100% | good activity | 3.39 |  |  |  |  |  |  | 
9 | Cc1nc(Cn2nc(C(F)(F)F)nc2C(F)(F)F)ccc1NC(=O)c1cccc(Cl)c1C(=O)N[C@@H](C)C[S+](C)[O-] (stereo partly shown) [Example 15] |  | 100% | good activity | 100% | good activity | 100% | good activity | 2.17 |  |  |  |  |  |  | 
10 | Cc1nc(Cn2nc(C(F)(F)F)nc2C(F)(F)F)ccc1NC(=O)c1cccc(Cl)c1C(=O)N[C@@H](C)CS(C)(=O)=O [Example 16] |  | 100% | good activity | 100% | good activity | 100% | good activity | 2.56 |  | good activity |  | good activity | 100% | 80% | 
11 | CSC[C@H](C)NC(=O)c1c(Cl)cccc1C(=O)Nc1cnc(Cn2nc(C(F)(F)C(F)(F)F)nc2C(F)(F)F)nc1C [Example 30] |  | 90% | good activity |  |  | 100% | good activity | 3.62 |  |  |  |  |  |  | 
12 | CSC[C@H](C)NC(=O)c1c(Br)cccc1C(=O)Nc1cnc(Cn2nc(C(F)(F)C(F)(F)F)nc2C(F)(F)F)nc1C [Example 31] |  | 100% | good activity |  |  | 100% | good activity | 3.67 |  |  |  |  |  |  | 
13 | Cc1nc(Cn2nc(C(F)(F)F)cc2C(F)(F)F)ncc1NC(=O)c1cccc(Cl)c1C(=O)N[C@@H](C)CS(C)(=O)=O [Example 34] |  |  | good activity |  |  | 100% | good activity | 2.56 |  |  |  |  |  |  | 
14 | Cc1nc(Cn2cc(C(F)(F)C(F)(F)F)c(C(F)(F)C(F)(F)F)n2)ncc1NC(=O)c1cccc(Cl)c1C(=O)N[C@@H](C)C[S+](C)[O-] (stereo partly shown) [Example 65] |  | 100% | good activity |  | good activity | 100% | good activity | 2.91 |  |  |  | good activity |  | 80% | 100%
15 | Cc1nc(Cn2nc(C(F)(F)F)cc2C(F)(F)F)ccc1N [IIIa-1, 6-{[3,5-bis(trifluoromethyl)-1H-pyrazol-1-yl]methyl}-2-methylpyridin-3-amine] | 1.9 |  |  |  |  |  |  |  |  |  |  |  |  |  | 
16 | Cc1sc(Cn2nc(C(F)(F)F)nc2C(F)(F)F)cc1N [IIIb-1, 5-{[3,5-bis(trifluoromethyl)-1H-1,2,4-triazol-1-yl]methyl}-2-methylthiophene-3-amine] | 2.2 |  |  |  |  |  |  |  |  |  |  |  |  |  | 

— patent US7884242B2, “N-heterocyclylphthaldiamides as insecticides” (Bayer CropScience AG, priority 2004, dated 2011)
